Data from patent US20220089568A1 (Janssen Biotech, Inc., priority 2019, published 2022).

Experiments:
human DHODH = target: T1, human DHODH (Homo sapiens, UniProt Q02127); experiment: DHODH Enzymatic Assay; assay type: biochemical; conditions: purified human DHODH; DCIP absorbance, end-point mode
T1 construct: purchased Proteros PR-0044
Procedure: To detect DHODH enzyme activities, dichloroindophenol (DCIP) is added as the final electron acceptor in the assay. DCIP can accept electrons from the reduced coenzyme Q generated in the assay, or from dihydroorotate (DHO) via FMN by binding presumably to the ubiquinone pocket. […] The assay buffer contained […], pH 7.5, 150 mM NaCl, 0.5 mM EDTA, and 0.1% Triton X-100 in MilliQ water. Substrate consisting of 20 mM DHO, 5 mM CoQ6, and 1 mM DCIP in assay buffer, initiates the reaction. […] Absorbance measurements were obtained using the BMG Phera Star plate-reading spectrophotomer. Purified human DHODH was purchased from Proteros (cat. No. PR-0044). Chemicals were purchased from Sigma-Aldrich, Teknova, and Avanti Polar Lipids. Liquid handling was performed using Labcyte Echo and Formulatrix Tempest.

MOLM-13 cells = experiment: MOLM-13 Cellular Assay; assay type: cell-based; conditions: Homo sapiens, 72 hours exposure, cell viability by CellTiter-Glo
Procedure: The day prior to assay set-up, cells were pelleted, resuspended in fresh media, counted, and cells were plated at 0.4×10^6 cell/mL in a T150 flask. […] Cells were exposed to different concentrations of test compounds at 37° C., 5% CO2 for 72 hours immediately after seeding.

T1 sequence (Q02127 whole entry): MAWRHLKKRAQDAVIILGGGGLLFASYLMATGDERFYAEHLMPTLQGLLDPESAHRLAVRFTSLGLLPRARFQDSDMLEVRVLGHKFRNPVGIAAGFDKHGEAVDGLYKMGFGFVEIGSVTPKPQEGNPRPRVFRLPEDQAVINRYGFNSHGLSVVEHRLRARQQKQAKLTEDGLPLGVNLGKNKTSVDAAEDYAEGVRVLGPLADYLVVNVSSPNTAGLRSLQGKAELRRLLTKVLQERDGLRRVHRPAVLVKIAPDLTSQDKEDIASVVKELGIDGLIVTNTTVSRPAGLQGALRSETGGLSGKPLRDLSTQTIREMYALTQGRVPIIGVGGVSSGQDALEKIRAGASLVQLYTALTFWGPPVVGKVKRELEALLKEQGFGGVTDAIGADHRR

| SMILES | EC50 (human DHODH) | EC50 (MOLM-13 cells) |
| --- | --- | --- |
| CCn1c(CO)nn(-c2nc(O[C@@H](C)C(F)(F)F)c(C(=O)Nc3cc(Cl)cnc3OC)cc2F)c1=O [Example 33, (S)-N-(5-Chloro-2-methoxypyridin-3-yl)-6-(4-ethyl-3-(hydroxymethyl)-5-oxo-4,5-dihydro-1H-1,2,4-triazol-1-yl)-5-fluoro-2-((1,1,1-trifluoropropan-2-yl)oxy)nicotinamide] | 52.5 nM | > 100 nM |
| CCn1c(CO)nn(-c2nc(O[C@@H](C)C(F)(F)F)c(C(=O)Nc3nccnc3OC)cc2F)c1=O [Example 34, (S)-6-(4-Ethyl-3-(hydroxymethyl)-5-oxo-4,5-dihydro-1H-1,2,4-triazol-1-yl)-5-fluoro-N-(3-methoxypyrazin-2-yl)-2-((1,1,1-trifluoropropan-2-yl)oxy)nicotinamide] | 360 nM | > 100 nM |
| CCn1c(CO)nn(-c2nc(O[C@@H](C)C(F)(F)F)c(C(=O)Nc3cc(C)cnc3F)cc2F)c1=O [Example 36, (S)-6-(4-Ethyl-3-(hydroxymethyl)-5-oxo-4,5-dihydro-1H-1,2,4-triazol-1-yl)-5-fluoro-N-(2-fluoro-5-methylpyridin-3-yl)-2-((1,1,1-trifluoropropan-2-yl)oxy)nicotinamide] | 58.6 nM | > 100 nM |
| CCn1c(CO)nn(-c2nc(O[C@@H](C)C(F)(F)F)c(C(=O)Nc3cc(C)ncc3F)cc2F)c1=O [Example 37, (S)-6-(4-Ethyl-3-(hydroxymethyl)-5-oxo-4,5-dihydro-1H-1,2,4-triazol-1-yl)-5-fluoro-N-(5-fluoro-2-methylpyridin-4-yl)-2-((1,1,1-trifluoropropan-2-yl)oxy)nicotinamide] | 200 nM | > 100 nM |

The remaining compounds from weak to strong by EC50 (human DHODH), led by results:

| EC50 (human DHODH) | EC50 (MOLM-13 cells) | SMILES |
| --- | --- | --- |
| 2390 nM | > 100 nM | CCn1c(CO)nn(-c2nc(O[C@@H](C)C(F)(F)F)c(C(=O)Nc3c(C)ncnc3Cl)cc2F)c1=O [Example 38, (S)-N-(4-Chloro-6-methylpyrimidin-5-yl)-6-(4-ethyl-3-(hydroxymethyl)-5-oxo-4,5-dihydro-1H-1,2,4-triazol-1-yl)-5-fluoro-2-((1,1,1-trifluoropropan-2-yl)oxy)nicotinamide] |
| 233 nM | > 100 nM | CCn1c(CO)nn(-c2nc(O[C@@H](C)C(F)(F)F)c(C(=O)Nc3snc(C)c3Br)cc2F)c1=O [Example 31, (S)-N-(4-Bromo-3-methylisothiazol-5-yl)-6-(4-ethyl-3-(hydroxymethyl)-5-oxo-4,5-dihydro-1H-1,2,4-triazol-1-yl)-5-fluoro-2-((1,1,1-trifluoropropan-2-yl)oxy)nicotinamide] |
| 14.1 nM | 16.5 nM | CCn1c(CO)nn(-c2nc(O[C@@H](C)C(F)(F)F)c(C(=O)Nc3nc(C)ccc3F)cc2F)c1=O [Example 39, (S)-6-(4-Ethyl-3-(hydroxymethyl)-5-oxo-4,5-dihydro-1H-1,2,4-triazol-1-yl)-5-fluoro-N-(3-fluoro-6-methylpyridin-2-yl)-2-((1,1,1-trifluoropropan-2-yl)oxy)nicotinamide] |
| 13.6 nM | 25.3 nM | CCn1c(CO)nn(-c2nc(O[C@@H](C)C(F)(F)F)c(C(=O)Nc3ncsc3C)cc2F)c1=O [Example 32, (S)-6-(4-Ethyl-3-(hydroxymethyl)-5-oxo-4,5-dihydro-1H-1,2,4-triazol-1-yl)-5-fluoro-N-(5-methylthiazol-4-yl)-2-((1,1,1-trifluoropropan-2-yl)oxy)nicotinamide] |
| 1.9 nM | 6.1 nM | CCn1c(CO)nn(-c2nc(O[C@@H](C)C(F)(F)F)c(C(=O)Nc3c(C)nsc3C)cc2F)c1=O [Example 35, (S)-N-(3,5-Dimethylisothiazol-4-yl)-6-(4-ethyl-3-(hydroxymethyl)-5-oxo-4,5-dihydro-1H-1,2,4-triazol-1-yl)-5-fluoro-2-((1,1,1-trifluoropropan-2-yl)oxy)nicotinamide] |
